In patent US20260166159A1, “KRAS G12D DEGRADATION AGENT, AND PREPARATION METHOD AND USE THEREFOR” (LEADINGTAC PHARMACEUTICAL (SHAOXING) CO., LTD., priority 2022, published 2026):

How the values were obtained:
[1] = tested on: KRAS-G12D mutant cells; conditions: KRAS-G12D mutant cells versus wild-type tumor cells; cited from earlier work
[2] = tested on: xenograft tumor models of both pancreatic cancer and colorectal cancer; conditions: cited from earlier work
[3] = target: T1, KRAS-G12D (Homo sapiens, UniProt P01116, G12D); assay: KRAS-G12D degradation assay (Western Blot), A-427 cells; assay type: cell-based; conditions: A427 cells, 24 h, class symbols; for Dmax: A-427
T1 construct: endogenous in cells; host or cells: A-427 (ATCC), AGS, AsPc-1, Panc 04.03
In short: (§1)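 Western blotting of lysates (5 μg protein) quantified KRAS against a β-actin reference after 24 h exposure to compound at final 0.03–3000 nM in 0.25% DMSO. Cells were A-427, AGS, AsPc-1 or Panc 04.03, all KRAS G12D, at 5×10^5/well. Degradation versus control yielded DC50 and Dmax.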

[4] = target: T1, KRAS-G12D; assay: KRAS-G12D degradation assay (Western Blot), AGS cells; assay type: cell-based; conditions: 24 h
Method: (§2) The degradation effects of the compounds on KRAS-G12D were investigated on KRAS G12D mutant human lung cancer cell A-427 (ATCC), KRAS G12D mutant human gastric cancer cell AGS, KRAS G12D mutant human metastatic pancreatic cancer cell AsPc-1, and KRAS G12D mutant human pancreatic adenocarcinoma cell Panc 04.03. The specific procedures were as follows: 0.95 mL of cells were seeded into each well of a 24-well cell culture plate to achieve a cell density of 5×10^5 cells/well; and the cell plate was incubated in an incubator at 37° C. with 5% CO2 overnight. Then 50 μL of the compound solution after dilution was added to each of the wells with the corresponding cells, so that the final concentration of the compound was in a range of 0.03-3000 nM. The final concentration of DMSO was 0.25%. After the compounds were added, the cell plate was incubated in the incubator at 37° C. with 5% CO2 for 24 h. The culture medium in the 24-well cell culture plate was removed, and the plate was washed twice with 1×PBS (KeyGEN). 120 μL of RIPA (strong) lysis buffer (Beyotime) supplemented with 1 mM phenylmethylsulfonyl fluoride, a protease inhibitor mixture (Beyotime), and a protease phosphatase inhibitor mixture (Beyotime) was added to lyse adherent A-427 cells at the bottom of the cell culture plate. After the plate was left to stand on ice for 30 min, the protein lysate in each well was transferred to a 1.5 mL centrifuge tube and centrifuged at 15000 g for 20 min at 4° C. The cell lysate supernatants after centrifugation were cryopreserved in a refrigerator at −80° C. for later use.
(§3) After the samples of the cell lysate supernatants that had been prepared were thawed from the refrigerator at −80° C., the total protein concentrations of the cell lysates were determined using a BCA protein quantification kit (Tiangen). The total protein concentrations of the samples were then adjusted to 0.5 μg/μL with PBS and 5×SDS-PAGE protein loading buffer (Beyotime), and the samples were incubated in a water bath at 100° C. for 15 min. The samples were then incubated in an ice bath for 5 min and centrifuged at 14000 g for 1 min at 4° C., and the supernatants were mixed well as loading samples for the Western Blot assay. The samples were loaded into wells of a 10% precast gel (KeyGEN) with a loading volume of 10 μL (total protein: 5 μg), a sufficient Tris-MOPS-SDS running buffer (Adamas) was added, and then electrophoresis was performed at a constant voltage of 120 V for 55 min. After the electrophoresis, the proteins on the gel were transferred to PVDF membranes at a constant current of 250 mA for 55 min. After the membrane transfer, the PVDF membranes were incubated in 1× Quick Block blocking buffer (Beyotime) at room temperature for 30 min. After the blocking, the PVDF membranes were separately incubated at 4° C. overnight with the KRAS antibody (Abcam) diluted in a ratio of 1:1000 and the […] antibody (Abcam) diluted in a ratio of 1:2000 in 5% BSA as the diluent, and then washed with 1×TBST buffer (2.4 g of Tris, 8.8 g of NaCl, 1.5 mL of Tween 20, with pH adjusted to 7.4, with the volume brought to 1 L) 3 times for 10 min/time. The membranes were incubated with a secondary antibody (Abcam) diluted in 5% BSA at room temperature for 2 h, and then washed with 1×TBST buffer 3 times for 10 min/time. Finally, the membranes were incubated with Clarity Western ECL Substrate (BIO-RAD) for 5 min for luminescence and color development, and a ChemiScope 6200 Touch chemiluminescence imaging system (Clinx) was used for color development and protein mapping. Gray value analysis of the protein maps was performed using the chemiluminescence analysis software (Clinx). The gray correction value for each sample was calculated using the formula: gray correction value=(gray value of target protein/gray value of corresponding internal reference)×10^3. Then degradation rates were calculated by comparison with the gray correction value of the control group. […]

[5] = target: T1, KRAS-G12D; assay: KRAS-G12D degradation assay (Western Blot), AsPc-1 cells; assay type: cell-based; conditions: for DC50: 24 h; for Dmax: ASPC1, 24 h
In short: as §1

[6] = target: T1, KRAS-G12D; assay: KRAS-G12D degradation assay (Western Blot), Panc 04.03 cells; assay type: cell-based; conditions: 24 h
Method: as §2, §3

[7] = tested on: KRAS G12D mutant human lung cancer cell A427; assay: 3D cell proliferation inhibition assay, A427; assay type: cell-based; conditions: A-427, 168 h, A427, 7 days, CTG, class symbols
In short: (§4)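 3D growth, low-adsorption plate; 5×10^2 cells/well; cpd 10000–0.026 nM final, 0.2% DMSO; 7 d, 37 °C/5% CO2. CTG luminescence, 60 min RT. % inhibition vs DMSO (cells) and medium blanks; IC50 by nonlinear fit.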

[8] = tested on: KRAS G12D mutant human gastric cancer cell AGS; assay: 3D cell proliferation inhibition assay, AGS; assay type: cell-based; conditions: 168 h, 7 days, CTG, class symbols
In short: as §4

[9] = tested on: KRAS G12D mutant human metastatic pancreatic cancer cell AsPc-1; assay: 3D cell proliferation inhibition assay, AsPc-1; assay type: cell-based; conditions: ASPC1, 168 h, AsPc-1, 7 days, CTG, class symbols
In short: as §4

[10] = tested on: KRAS G12D mutant human pancreatic cancer cell Panc 04.03; assay: 3D cell proliferation inhibition assay, Panc 04.03; assay type: cell-based; conditions: 168 h, Panc 04.03, 7 days, CTG, class symbols
In short: as §4

[11] = tested on: KRAS G12D mutant human pancreatic cancer cell HPAC; assay: 3D cell proliferation inhibition assay, HPAC; assay type: cell-based; conditions: 168 h, 7 days, CTG
In short: as §4

T1 sequence (P01116 1-188 isoform P01116-2 G12D): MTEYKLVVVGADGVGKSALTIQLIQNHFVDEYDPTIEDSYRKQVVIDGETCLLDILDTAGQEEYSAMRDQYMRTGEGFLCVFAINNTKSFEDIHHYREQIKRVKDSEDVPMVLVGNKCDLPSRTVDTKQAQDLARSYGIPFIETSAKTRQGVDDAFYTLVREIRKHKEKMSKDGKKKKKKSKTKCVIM

Compound | specificity [1] | inhibition in xenograft tumor models [2] | DC50 [3] | Dmax [3] | DC50 [4] | Dmax [4] | DC50 [5] | Dmax [5] | DC50 [6] | Dmax [6] | IC50 [7] | IC50 [8] | IC50 [9] | IC50 [10] | IC50 [11]
C#Cc1c(F)ccc2cc(O)cc(-c3ncc4c(N5CC6CCC(C5)N6)nc(OC[C@@]56CCCN5C[C@H](F)C6)nc4c3F)c12 [MRTX1133] | more than 1000 times | Dose-dependent inhibition | – | – | – | – | – | – | – | – | – | – | – | – | –
CCc1cccc2cc(O)cc(-c3ncc4c(N5CC6CCC(C5)N6)nc(OCC5(CN6CCN(CC7CCC8(CC7)CCN(C(=O)c7ccc(Cl)c(N9CCC(=O)NC9=O)c7)CC8)CC6)CC5)nc4c3F)c12 [Example 50, 1-(5-(9-((4-((1-(((4-(3,8-diazabicyclo[3.2.1]octan-3-yl)-7-(8-ethyl-3-hydroxynaphthalen-1-yl)-8-fluoropyrido[4,3-d]pyrimidin-2-yl)oxy)methyl)cyclopropyl)methyl)piperazin-1-yl)methyl)-3-azaspiro [5.5]undecane-3-carbonyl)-2-chlorophenyl)dihydropyrimidine-2,4(1H,3H)-dione] | – | – | ≤ 50 nM | 80 to 100% | 1.73 nM | 97.3% | 33.1 nM | 100% | 31.9 nM | 99.3% | ≤ 50 nM | ≤ 50 nM | ≤ 50 nM | ≤ 50 nM | 11.6 nM
CCc1cccc2cc(O)cc(-c3ncc4c(N5CC6CCC(C5)N6)nc(OCC5(CN6CCN(CC7CCC8(CC7)CCN(C(=O)c7ccc(C)c(N9CCC(=O)NC9=O)c7)CC8)CC6)CC5)nc4c3F)c12 [Example 51, 1-(5-(9-((4-((1-(((4-(3,8-diazabicyclo[3.2.1]octan-3-yl)-7-(8-ethyl-3-hydroxynaphthalen-1-yl)-8-fluoropyrido[4,3-d]pyrimidin-2-yl)oxy)methyl)cyclopropyl)methyl)piperazin-1-yl)methyl)-3-azaspiro[5.5]undecane-3-carbonyl)-2-methylphenyl)dihydropyrimidine-2,4(1H,3H)-dione] | – | – | ≤ 50 nM | 80 to 100% | 9.87 nM | 97.2% | 4.79 nM | 99.4% | 23 nM | 93.8% | ≤ 50 nM | ≤ 50 nM | ≤ 50 nM | ≤ 50 nM | 4.55 nM
